The record followed here is BindingDB's records for doi:10.1016/j.chembiol.2017.03.002 (Jagiellonian University, 2017).

In this assay the target is T1, Ubiquitin carboxyl-terminal hydrolase 2 [258-605] (Homo sapiens, UniProt O75604).
T1 construct: 258-605
T1 sequence (O75604 whole entry): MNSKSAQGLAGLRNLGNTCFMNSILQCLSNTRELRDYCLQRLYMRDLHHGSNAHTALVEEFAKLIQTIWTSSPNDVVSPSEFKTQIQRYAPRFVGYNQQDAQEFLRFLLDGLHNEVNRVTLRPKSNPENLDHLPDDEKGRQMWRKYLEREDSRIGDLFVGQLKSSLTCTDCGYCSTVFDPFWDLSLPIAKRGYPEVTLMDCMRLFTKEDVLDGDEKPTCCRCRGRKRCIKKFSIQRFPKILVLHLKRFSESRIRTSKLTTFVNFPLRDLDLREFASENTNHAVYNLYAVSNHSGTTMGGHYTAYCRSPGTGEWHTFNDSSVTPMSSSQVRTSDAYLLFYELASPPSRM
Nature of the assay: Ub-AMC-Hydrolysis Assay. The protocol: The assays were performed using Infinite 200 PRO - Tecan plate reader and 96-well, black Greiner microplates in a […] reaction volume. […]

Consider `COC(=O)C1CC[C@@]2(C)[C@H](CC[C@@H]3[C@@H]2CC[C@]2(C)[C@@H]([C@H](C)CCC(=O)O)CC[C@@H]32)C1` (stereo partly specified) [LCAE], for which the IC50 turned out to be 5.8 µM.

Broadly, the IC50 is the concentration that gives 50% inhibition.
